Assay results published in ChEMBL document CHEMBL2203069, “Synthesis and structure-activity relationships of a novel series of pyrimidines as potent inhibitors of TBK1/IKKε kinases” (Bioorg Med Chem Lett, 2012).

What was measured:
[1] = biological target: T1, Serine/threonine-protein kinase TBK1 (Homo sapiens, UniProt Q9UHD2); experiment: Inhibition of TBK1 by radiometry
T1 sequence (Q9UHD2 whole entry): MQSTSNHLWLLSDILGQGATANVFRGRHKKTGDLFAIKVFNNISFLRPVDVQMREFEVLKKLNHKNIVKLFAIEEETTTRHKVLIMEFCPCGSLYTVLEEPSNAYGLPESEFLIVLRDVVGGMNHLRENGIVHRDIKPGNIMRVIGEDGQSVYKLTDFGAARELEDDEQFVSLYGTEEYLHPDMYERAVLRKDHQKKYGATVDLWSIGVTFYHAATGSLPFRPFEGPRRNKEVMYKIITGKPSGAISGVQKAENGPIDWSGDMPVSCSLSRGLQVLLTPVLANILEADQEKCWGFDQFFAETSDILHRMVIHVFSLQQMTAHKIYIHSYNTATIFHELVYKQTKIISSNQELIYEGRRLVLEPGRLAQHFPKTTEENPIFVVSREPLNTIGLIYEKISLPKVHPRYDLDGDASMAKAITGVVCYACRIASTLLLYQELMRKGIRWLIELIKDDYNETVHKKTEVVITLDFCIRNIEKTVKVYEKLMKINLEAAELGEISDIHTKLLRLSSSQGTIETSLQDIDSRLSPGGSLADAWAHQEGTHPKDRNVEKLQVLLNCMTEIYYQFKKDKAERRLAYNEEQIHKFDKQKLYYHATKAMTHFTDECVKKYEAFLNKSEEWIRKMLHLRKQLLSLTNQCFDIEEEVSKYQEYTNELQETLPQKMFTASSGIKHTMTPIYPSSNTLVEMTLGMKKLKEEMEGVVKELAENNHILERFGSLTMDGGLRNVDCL

[2] = biological target: T2, Serine/threonine-protein kinase TBK1 (Mus musculus, UniProt Q9WUN2); experiment: Inhibition of TBK1-mediated RANTES release in LPS-stimulated mouse RAW264.7 cells compound incubated for 30 mins prior LPS challenge measured after 6 hrs by ELISA; type: cell-based
T2 sequence (Q9WUN2 whole entry): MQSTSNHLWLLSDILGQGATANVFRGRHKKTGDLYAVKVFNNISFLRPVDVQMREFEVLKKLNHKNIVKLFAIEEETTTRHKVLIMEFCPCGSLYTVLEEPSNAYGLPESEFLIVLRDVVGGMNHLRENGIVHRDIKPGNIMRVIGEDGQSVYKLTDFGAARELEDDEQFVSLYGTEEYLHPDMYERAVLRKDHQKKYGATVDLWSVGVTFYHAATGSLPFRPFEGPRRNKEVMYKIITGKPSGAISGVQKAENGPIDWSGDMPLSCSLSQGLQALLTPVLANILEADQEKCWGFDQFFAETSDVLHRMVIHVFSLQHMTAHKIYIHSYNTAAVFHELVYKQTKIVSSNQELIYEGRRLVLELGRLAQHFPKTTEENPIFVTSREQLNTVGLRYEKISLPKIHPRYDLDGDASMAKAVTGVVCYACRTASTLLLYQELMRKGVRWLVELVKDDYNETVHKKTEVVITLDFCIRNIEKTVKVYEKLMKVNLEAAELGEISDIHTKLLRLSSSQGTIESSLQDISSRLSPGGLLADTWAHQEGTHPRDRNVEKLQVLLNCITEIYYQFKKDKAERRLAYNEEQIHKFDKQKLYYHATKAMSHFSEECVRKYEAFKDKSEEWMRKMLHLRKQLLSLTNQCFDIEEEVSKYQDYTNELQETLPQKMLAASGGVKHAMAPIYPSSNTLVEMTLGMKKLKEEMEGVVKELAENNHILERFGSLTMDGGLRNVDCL

[3] = biological target: T3, 3-phosphoinositide-dependent protein kinase 1 (Homo sapiens, UniProt O15530); experiment: Inhibition of PDK1 by radiometry
T3 sequence (O15530 whole entry): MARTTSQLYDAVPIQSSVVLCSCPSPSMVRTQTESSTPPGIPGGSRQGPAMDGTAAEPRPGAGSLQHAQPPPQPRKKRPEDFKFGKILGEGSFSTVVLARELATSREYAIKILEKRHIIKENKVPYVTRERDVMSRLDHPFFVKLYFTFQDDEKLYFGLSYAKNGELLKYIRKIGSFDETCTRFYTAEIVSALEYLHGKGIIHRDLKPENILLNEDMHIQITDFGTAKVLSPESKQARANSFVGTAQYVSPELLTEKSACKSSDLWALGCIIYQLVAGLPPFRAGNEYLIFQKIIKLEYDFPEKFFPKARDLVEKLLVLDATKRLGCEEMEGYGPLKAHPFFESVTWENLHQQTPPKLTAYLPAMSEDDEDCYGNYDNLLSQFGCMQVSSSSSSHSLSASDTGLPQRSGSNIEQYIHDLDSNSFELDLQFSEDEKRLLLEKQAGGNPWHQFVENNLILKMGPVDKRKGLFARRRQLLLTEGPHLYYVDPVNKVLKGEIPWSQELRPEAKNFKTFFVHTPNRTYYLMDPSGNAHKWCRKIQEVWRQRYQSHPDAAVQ

[4] = Metabolic stability in mouse liver microsomes assessed as compound turnover after 30 mins; type: ADME, Microsome; conditions: read-out: Drug metabolism
[5] = Metabolic stability in human liver microsomes assessed as compound turnover after 40 mins; type: ADME, Microsome; conditions: read-out: Drug metabolism
[6] = Permeability from apical to basolateral side of human Caco2 cells; type: ADME, cell-based; conditions: Caco-2, read-out: permeability
[7] = Efflux ratio of permeability from basolateral to apical side to apical to basolateral side in human Caco2 cells; type: ADME, cell-based; conditions: Caco-2

SMILES	IC50 [1] [nM]	metabolised at 0.5 h [4] [%]	metabolised at 40 min [5] [%]	IC50 ([2]; read-out: IC50) [nM]	other results
O=C(NCCCNc1nc(NC2CCCCC2)ncc1C1CC1)c1cccs1	> 10000				
CN1CCN(C(=O)c2ccc(Nc3ncc(C4CC4)c(NCCCNC(=O)C4CCC4)n3)cc2)CC1	2				IC50 ([2]; raw264.7): Not Active
O=C(NCCCNc1nc(Nc2cccc(F)c2)ncc1Br)C1CCC1					IC50 [3]: 68 nM
COCCC(=O)NCCCNc1nc(Nc2cccc(F)c2)ncc1Br	60				
O=C(NCCCNc1nc(Nc2cccc(F)c2)ncc1Br)C1CCCC1	8				IC50 [3]: 220 nM
CC(=O)N1CCC(C(=O)NCCCNc2nc(Nc3cccc(F)c3)ncc2Br)CC1	430				
CCn1cc(Nc2ncc(C3CC3)c(NCCCNC(=O)C3CCC3)n2)cn1	7	54	37	140	
O=C(NCCCNc1nc(Nc2cnn(C3CC3)c2)ncc1C1CC1)C1CCC1	10	24	32	130	
O=C(NCCCNc1nc(Nc2cccc(NC(=O)N3CCCC3)c2)ncc1Br)c1cccs1	6				
O=C(NCCCNc1nc(Nc2ccc(-n3cncn3)cc2)ncc1C1CC1)C1CCC1	3	35	23	150	Papp A→B [6]: 10 ×10⁻⁶ cm/s; efflux ratio [7]: 3
CN1CCC(C(=O)NCCCNc2nc(Nc3cccc(F)c3)ncc2Br)CC1	4300				
O=C(NCCCNc1nc(Nc2ccccc2F)ncc1C1CC1)c1cccs1	820				
O=C(NCCCNc1nc(Nc2cccc(F)c2)ncc1Br)c1ccc(C(F)(F)F)cc1	450				
Cc1nn(C)c2cc(Nc3ncc(C4CC4)c(NCCCNC(=O)C4CCC4)n3)ccc12	7	41	86	90	
O=C(NCCCNc1nc(Nc2cccc(N3CCOCC3)c2)ncc1C1CC1)C1CCC1	28			580	
O=C(NCCCNc1nc(Nc2ccc(N3CCOCC3)nc2)ncc1C1CC1)C1CCC1	15	92	15	490	
CC(C)c1cnc(Nc2cccc(F)c2)nc1NCCCNC(=O)C1CCC1	> 1000				
O=C(NCCCNc1nc(Nc2cccc(F)c2)ncc1C1CC1)c1cccs1	110				
O=C(NCCCNc1nc(Nc2cccc(F)c2)ncc1C1CC1)C1CCC1	8	74	80	1300	IC50 [3]: 580 nM
O=C(NCCCNc1nc(Nc2cnn(CCN3CCOCC3)c2)ncc1C1CC1)C1CCC1	9	68	46	9000	
O=C(NCCCNc1nc(Nc2cccc(F)c2)ncc1CC1CC1)C1CCC1	> 1000				

SMILES	IC50 [1] [nM]	metabolised at 0.5 h [4] [%]	metabolised at 40 min [5] [%]	IC50 ([2]; read-out: IC50) [nM]	other results
O=C(NCCCNc1nc(Nc2cccc(F)c2)ncc1Br)c1cnccn1	22				
O=C(NCCCNc1nc(Nc2cccnc2)ncc1C1CC1)C1CCC1	13			> 1000	
O=C(NCCCNc1nc(Nc2cccc(-c3cnco3)c2)ncc1C1CC1)C1CCC1	11	34	26	560	
CN1CCC(c2ccc(Nc3ncc(C4CC4)c(NCCCNC(=O)C4CCC4)n3)cc2)CC1	8	30	23	660	
Cn1ncc2cc(Nc3ncc(C4CC4)c(NCCCNC(=O)C4CCC4)n3)ccc21	16	40	42	380	
O=C(NCCCNc1nc(Nc2cccc(F)c2)ncc1Br)c1cccs1	9				IC50 [3]: 130 nM
CCc1cnc(Nc2cccc(F)c2)nc1NCCCNC(=O)C1CCC1	63				
O=C(NCCCNc1nc(Nc2ccc(CN3CCCCC3)nc2)ncc1C1CC1)C1CCC1	9			1200	Papp A→B [6]: 0.1 ×10⁻⁶ cm/s; efflux ratio [7]: 780
O=C(NCCCNc1nc(Nc2cccc(Cn3cncn3)c2)ncc1C1CC1)C1CCC1	3		63	88	
O=C(NCCCNc1nc(Nc2cccc(F)c2)ncc1Br)c1cccc(N2CCOCC2)c1	3600				
CC(C)N1CCC(n2cc(Nc3ncc(C4CC4)c(NCCCNC(=O)C4CCC4)n3)cn2)CC1	7	42	24	3000	Papp A→B [6]: 1.4 ×10⁻⁶ cm/s; efflux ratio [7]: 16
O=C(NCCCNc1nc(NCc2ccc(F)cc2)ncc1C1CC1)c1cccs1	> 10000				
CC(C)n1cc(Nc2ncc(C3CC3)c(NCCCNC(=O)C3CCC3)n2)cn1	4	41	61	81	
O=C(NCCCNc1nc(Nc2ccc3c(c2)CN(C2CC2)CC3)ncc1C1CC1)C1CCC1	7	86	91	570	
O=C(CCc1ccccc1)NCCCNc1nc(Nc2cccc(F)c2)ncc1Br	560				
CN(C)Cc1ccc(Nc2ncc(C3CC3)c(NCCCNC(=O)C3CCC3)n2)cc1	6			550	Papp A→B [6]: 1 ×10⁻⁶ cm/s; efflux ratio [7]: 56
O=C(NCCCNc1nc(Nc2cncnc2)ncc1C1CC1)C1CCC1	3200				
O=C(NCCCNc1nc(Nc2cnn(C3CCCC3)c2)ncc1C1CC1)C1CCC1	4	59	67	93	
O=C(NCCCNc1nc(Nc2cnn(C3CCC3)c2)ncc1C1CC1)C1CCC1	2	61	61	220	
O=C(NCCCNc1nc(Nc2cnn(C3CCOCC3)c2)ncc1C1CC1)C1CCC1	2	33	25	280	
Cn1ccc(Nc2ncc(C3CC3)c(NCCCNC(=O)C3CCC3)n2)n1	> 1000				
